Test results published in patent US20200064333A1, “ECM COMPOSITION, TUMOR MICROENVIRONMENT PLATFORM AND METHODS THEREOF” (MITRA RXDX INDIA PRIVATE LIMITED, priority 2011, published 2020).

Legend:
[1] = system: Breast Cancer patient tumor tissue; assay: "Clinical Response Predictor" explant analysis (M-score), Breast cancer; assay type: cell-based, human; parameters: key: 0-100 composite M-score from proprietary algorithm
From the text: “Clinical Response Predictor” is a patient segregation tool for matching drugs to patients and patients to the drugs in Oncology. “Clinical Response Predictor” explant model is a personalized functional assay that helps predict the response of the patient under investigation to a set of approved drugs for his/her type of cancer. This is done using fresh patient tumor tissue from solid cancers in a specially coated 96/384 well plate. The plates are coated with specific set of Extra Cellular Matix. Further, patient derived autologous ligands are added to the culture. Angiogenic factors are added to maintain tumor vasculature. In case of immunomodulator drugs, autologus immune cells are added to the culture. In the case of haematological malignancies, patient plasma is cultured in the 96/384 well format. The test is carried out in multiplicates to take into account the heterogeneous nature of cancer. “Clinical Response Predictor” results are measured by both kinetic as well as end-point assays. Cell Viability, Cell death, Cell proliferation, cell metabolism, senescence, tumor morphology are some of the parameters assessed. Each of these parameters is measured by more than one assay. For e.g.: Cell Viability is measured by WST, ATP uptake and Glucose uptake assays. Cell Proliferation and Metabolism is measured by Ki67, PCNA (proliferating nuclear cell antigen), ATP/ADP ratio and Glucose uptake. Cell death is assessed by LDH, Activated Caspase 3, Activated Caspase 8 & Nitric Oxide Synthase and TUNEL. Tumor morphology is assessed by H&E to look at the tumor cell content, size of the tumor cells, ratio of viable cells/dead cells, ratio of tumor cells/normal cells, and tumor/macrophage ratio, nuclear size and density and integrity, apoptotic bodies and mitotic figures. Results from each of the assays are expressed in numeric form and is converted using a proprietary algorithm into a single 0-100 metric called “M-score”.
Alternatively, when the tumor source is a xenograft, tumor from mice is excised and further subjected to explant analysis as described below. In another embodiment, the tumor is obtained and is implanted into the mice, thereafter it is allowed to grow, then excised and then subjected to the instant “Clinical Response Predictor” analysis. Post obtaining the, tissue sample, it is divided for obtaining various inputs from a) explant assay, b) Histology based assays like IHC (immunohistochemistry)/H&E, and c) efficacy analysis from primary tumor derived xenografts. • A) Tissue sample given for explant analysis is sliced using Leica Vibratome to generate sections of about 100-3000 μm thickness. These sections are cultured in plates coated with the cancer type specific ECM composition in quadruplicate with media containing autologous sera and also various drugs optionally, for a period of about 48-96 hours. Media with drug and enriched with serum/plasma/PBMCs/serum derived ligands is changed every 24 hours. Post this period MTT/WST analysis is done to assess percent cell viability (end point assay). The supernatant from the media culture is removed every 24 hrs and assessed for proliferation (using ATP and glucose utilization experiments) and cell death (by assessment of lactate dehydrogenase assays and caspase-3 and caspase 8 measurements) to give kinetic response trends. Results are quantified against a drug untreated control. […] The tissue sections both treated and untreated are also given for histological evaluation at the end of the culture period. • B) The tissues given for histological evaluation are assessed for apoptosis by TUNEL and activated caspase 3 assay. Also cell proliferation is assayed for standard proliferation markers like Ki67.

[2] = system: Head and Neck Cancer patient tumor tissue; assay: "Clinical Response Predictor" explant analysis (M-score / Sensitivity Index), Head and Neck cancer; assay type: cell-based, human; conditions: Right pyriform sinus
From the text: (§1) “Clinical Response Predictor” is a patient segregation tool for matching drugs to patients and patients to the drugs in Oncology. “Clinical Response Predictor” explant model is a personalized functional assay that helps predict the response of the patient under investigation to a set of approved drugs for his/her type of cancer. This is done using fresh patient tumor tissue from solid cancers in a specially coated 96/384 well plate. The plates are coated with specific set of Extra Cellular Matix. Further, patient derived autologous ligands are added to the culture. Angiogenic factors are added to maintain tumor vasculature. In case of immunomodulator drugs, autologus immune cells are added to the culture. […] “Clinical Response Predictor” results are measured by both kinetic as well as end-point assays. Cell Viability, Cell death, Cell proliferation, cell metabolism, senescence, tumor morphology are some of the parameters assessed. Each of these parameters is measured by more than one assay. For e.g.: Cell Viability is measured by WST, ATP uptake and Glucose uptake assays. Cell Proliferation and Metabolism is measured by Ki67, PCNA (proliferating nuclear cell antigen), ATP/ADP ratio and Glucose uptake. Cell death is assessed by LDH, Activated Caspase 3, Activated Caspase 8 & Nitric Oxide Synthase and TUNEL. […]

[3] = system: Ovary Cancer patient tumor tissue; assay: "Clinical Response Predictor" explant analysis (M-score), Ovary cancer; assay type: cell-based, human
From the text: as §1

[4] = system: Pancreatic Cancer patient tumor tissue; assay: "Clinical Response Predictor" explant analysis (M-score), Pancreatic cancer; assay type: cell-based, human
From the text: as §1

[5] = system: Liver Cancer patient tumor tissue; assay: "Clinical Response Predictor" explant analysis (M-score), Liver cancer; assay type: cell-based, human; conditions: for M-Score: liver
From the text: “Clinical Response Predictor” is a patient segregation tool for matching drugs to patients and patients to the drugs in Oncology. “Clinical Response Predictor” explant model is a personalized functional assay that helps predict the response of the patient under investigation to a set of approved drugs for his/her type of cancer. This is done using fresh patient tumor tissue from solid cancers in a specially coated 96/384 well plate. The plates are coated with specific set of Extra Cellular Matix. Further, patient derived autologous ligands are added to the culture. Angiogenic factors are added to maintain tumor vasculature. In case of immunomodulator drugs, autologus immune cells are added to the culture. In the case of haematological malignancies, patient plasma is cultured in the 96/384 well format. The test is carried out in multiplicates to take into account the heterogeneous nature of cancer. “Clinical Response Predictor” results are measured by both kinetic as well as end-point assays. Cell Viability, Cell death, Cell proliferation, cell metabolism, senescence, tumor morphology are some of the parameters assessed. Each of these parameters is measured by more than one assay. For e.g.: Cell Viability is measured by WST, ATP uptake and Glucose uptake assays. Cell Proliferation and Metabolism is measured by Ki67, PCNA (proliferating nuclear cell antigen), ATP/ADP ratio and Glucose uptake. Cell death is assessed by LDH, Activated Caspase 3, Activated Caspase 8 & Nitric Oxide Synthase and TUNEL. Tumor morphology is assessed by H&E to look at the tumor cell content, size of the tumor cells, ratio of viable cells/dead cells, ratio of tumor cells/normal cells, and tumor/macrophage ratio, nuclear size and density and integrity, apoptotic bodies and mitotic figures. Results from each of the assays are expressed in numeric form and is converted using a proprietary algorithm into a single 0-100 metric called “M-score”. […]
Alternatively, when the tumor source is a xenograft, tumor from mice is excised and further subjected to explant analysis as described below. […] The supernatant from the media culture is removed every 24 hrs and assessed for proliferation (using ATP and glucose utilization experiments) and cell death (by assessment of lactate dehydrogenase assays and caspase-3 and caspase 8 measurements) to give kinetic response trends. Results are quantified against a drug untreated control. […] The tissue sections both treated and untreated are also given for histological evaluation at the end of the culture period. • B) The tissues given for histological evaluation are assessed for apoptosis by TUNEL and activated caspase 3 assay. […]

[6] = system: Stomach Cancer patient tumor tissue; assay: "Clinical Response Predictor" explant analysis (M-score), Stomach cancer; assay type: cell-based, human
From the text: as §1

[7] = system: Glioblastoma, Ca-Ovary, Ca-Breast, Ca-Oesophagus, Ca-Pancreas, Ca-Stomach; assay: Clinical outcome of patients (PETCT or CT), other solid cancers; assay type: in vivo, human; conditions: evaluated at the end of 6-8 months by PETCT or CT
Description: The figure details that the tumor tissue from the patient is analyzed using explant read out, primary Human tumor xenograft readout and then subjected to a variety of genomic and proteomic profiling accompanied by histological analysis and final correlation with patient clinical data for the chemotherapy regimen. All these input parameters together generate the “Clinical Response Predictor”. The integrated preclinical prediction model is designed based on functional “Clinical Response Predictor” screening platform and M Score prompted by it. Tumor tissues are collected from clinics prior to initiation of treatment. Clinical outcome (PERCIST/RECIST) data are collected before and after completion of 3 cycles of chemotherapy (top of the FIG. 1). Concomitantly, after resection/biopsy tumors are treated with same Standards of Care [SOC] or targeted drugs as that received by patients using an “Clinical Response Predictor” driven explants platform. This leads to the extensive functional and molecular characterization (middle of the FIG. 1). […] The combined data from this platform is integrated for determining the M-score and thereafter correlated with PERCIST/RECIST obtained from patient after 3rd to 6th cycle of therapy.
The “Clinical Response Predictor” outcome (M-score) is then compared with clinical outcome.

[8] = system: Glioblastoma patient tumor tissue; assay: "Clinical Response Predictor" explant analysis (M-score), Glioblastoma; assay type: cell-based, human; conditions: Glioblastoma patient tumor sample, Table 3
From the text: as §1

[9] = system: Colon Cancer patient tumor tissue; assay: "Clinical Response Predictor" explant analysis (M-score), Colon / Colorectum cancer; assay type: cell-based, human
From the text: “Clinical Response Predictor” is a patient segregation tool for matching drugs to patients and patients to the drugs in Oncology. “Clinical Response Predictor” explant model is a personalized functional assay that helps predict the response of the patient under investigation to a set of approved drugs for his/her type of cancer. This is done using fresh patient tumor tissue from solid cancers in a specially coated 96/384 well plate. The plates are coated with specific set of Extra Cellular Matix. Further, patient derived autologous ligands are added to the culture. Angiogenic factors are added to maintain tumor vasculature. In case of immunomodulator drugs, autologus immune cells are added to the culture. In the case of haematological malignancies, patient plasma is cultured in the 96/384 well format. The test is carried out in multiplicates to take into account the heterogeneous nature of cancer. “Clinical Response Predictor” results are measured by both kinetic as well as end-point assays. Cell Viability, Cell death, Cell proliferation, cell metabolism, senescence, tumor morphology are some of the parameters assessed. Each of these parameters is measured by more than one assay. For e.g.: Cell Viability is measured by WST, ATP uptake and Glucose uptake assays. Cell Proliferation and Metabolism is measured by Ki67, PCNA (proliferating nuclear cell antigen), ATP/ADP ratio and Glucose uptake. Cell death is assessed by LDH, Activated Caspase 3, Activated Caspase 8 & Nitric Oxide Synthase and TUNEL. Tumor morphology is assessed by H&E to look at the tumor cell content, size of the tumor cells, ratio of viable cells/dead cells, ratio of tumor cells/normal cells, and tumor/macrophage ratio, nuclear size and density and integrity, apoptotic bodies and mitotic figures. […]
Alternatively, when the tumor source is a xenograft, tumor from mice is excised and further subjected to explant analysis as described below. […] Results are quantified against a drug untreated control. […]

[10] = Example 13.11: patient, Breast Cancer, Regional Lymph node (R) Breast, T3N1M0, metastasis and recc
[11] = Example 13.14: patient, T4N0M0, primary

Work on `CC(C)(C#N)c1cc(Cn2cncn2)cc(C(C)(C)C#N)c1` [Anastrozole] yielded a M-Score [1, 10] of 20.
With `CCCCCOC(=O)Nc1nc(=O)n([C@@H]2O[C@H](C)[C@@H](O)[C@H]2O)cc1F` [Capecitabine] the M-Score [1, 10] was 26.
`N.N.[Cl][Pt][Cl]` [Cisplatin] was tested, and the M-Score ([2]; Example 13.1: patient, T3N0M0, primary) was 64 and the M-Score ([2]; Example 13.2: patient, T3/4N2cM0, metastatic lymph node) was 39.
Work on `CC(=O)O[C@@]12CO[C@@H]1C[C@H](O)[C@@]1(C)C(=O)[C@H](O)C3=C(C)[C@@H](OC(=O)[C@H](O)[C@@H](NC(=O)OC(C)(C)C)c4ccccc4)C[C@@](O)([C@@H](OC(=O)c4ccccc4)[C@H]21)C3(C)C` [Docetaxel] yielded a M-Score ([3]; Example 13.10: patient, primary) of 19, a M-Score ([3]; Example 13.9: patient, metastasis) of 26 and a M-Score [1, 10] of 26.
Compound `COc1cccc2c1C(=O)c1c(O)c3c(c(O)c1C2=O)C[C@@](O)(C(=O)CO)C[C@@H]3O[C@H]1C[C@H](N)[C@H](O)[C@H](C)O1` [Doxorubicin] has a M-Score [1, 10] of 17.
Compound `C#Cc1cccc(Nc2ncnc3cc(OCCOC)c(OCCOC)cc23)c1` [Erlotinib] has a M-Score ([4]; Example 13.7: patient, tumor site liver, metastasis) of 21 and a M-Score ([4]; Example 13.8: patient, pancreas, T2N0M0, primary) of 14.
With `Nc1ccn([C@@H]2O[C@H](CO)[C@@H](O)C2(F)F)c(=O)n1` [Gemcitabine] the M-Score [1, 10] was 21.
In the case of `CC(=O)O[C@H]1C(=O)[C@@]2(C)[C@H]([C@H](OC(=O)c3ccccc3)[C@]3(O)C[C@H](OC(=O)[C@H](O)[C@@H](NC(=O)c4ccccc4)c4ccccc4)C(C)=C1C3(C)C)[C@]1(OC(C)=O)CO[C@@H]1C[C@@H]2O` [Paclitaxel], the M-Score [1, 10] is reported as 11.
With `CNC(=O)c1cc(Oc2ccc(NC(=O)Nc3ccc(Cl)c(C(F)(F)F)c3)cc2)ccn1` [Sorafenib] the “"Clinical Response Predictor" analysis suggestion” value ([5]; Example 13.13: patient, T3NxM1, metastasis) was “not an optimal therapeutic option”, the M-Score ([5]; Example 13.13: patient, T3N×M1, metastasis) was 16 and the “"Clinical Response Predictor" analysis suggestion” value [5, 11] was “an optimal therapeutic option”. It also gave a M-Score [5, 11] of 46.
In the case of `CCN(CC)CCNC(=O)c1c(C)[nH]c(/C=C2\C(=O)Nc3ccc(F)cc32)c1C` [Sunitinib], the M-Score ([6]; Example 13.5: patient, pylorus of stomach, metastatic lymph node recc) is reported as 25 and the M-Score ([6]; Example 13.6: patient, stomach, recc) is reported as 09.
With `Cn1nnc2c(C(N)=O)ncn2c1=O` [Temozolomide] the “Clinical readout RECIST” value ([7]; Glioblastoma patient) was 2 and the “Sensitivity Index” value [8] was 49.
For `CCC1=C[C@@H]2CN(C1)Cc1c([nH]c3ccccc13)[C@@](C(=O)OC)(c1cc3c(cc1OC)N(C)[C@H]1[C@@](O)(C(=O)OC)[C@H](OC(C)=O)[C@]4(CC)C=CCN5CC[C@]31[C@@H]54)C2` [Vinorelbine], the “Clinical readout RECIST” value ([7]; Ca-Breast patients) was 2 and the M-Score [1, 10] was 19.
In the case of Avastin, the M-Score ([9]; Example 13.15: patient, Colorectum Cancer, perineal mass, T3N0M0, recurrent) is reported as 20, the M-Score ([1]; Example 13.18: patient, Breast Cancer with mets, Regional lymph node (Rt Br), T3N1M1, recurrent) is reported as 18 and the M-Score ([1]; Example 13.19: patient, Breast Cancer with SCLN mets, supraclaviculus lymph node, TXNXM2, metastatic) is reported as 14.
For Panitumumab, the M-Score ([9]; Example 13.3: patient, Colon Cancer, rectosigmoid colon, Stage IV, metastasis) was 19 and the M-Score ([9]; Example 13.4: patient, Colon Cancer, perineal mass (Ca-Rectum), T3N0M0, Recc) was 27.
